Activity calls are given as the source filed them. The rule behind the calls is not given here.
Tests used:
[1] = system: NCI-H522; experiment: Induction of ferroptosis in human NCI-H522 cells incubated for 3 days in presence of liproxstatin-1 by methylene blue staining based spectrophotometric analysis; assay type: functional, cell-based; conditions: time 3.0 day
[2] = system: NCI-H522; experiment: Cytotoxicity against human NCI-H522 cells assessed as reduction in cell viability incubated for 3 days by methylene blue staining based spectrophotometric analysis; assay type: functional; conditions: NCI-H522, 72 h, time 3 day
[3] = system: SR; experiment: Cytotoxicity against human SR cells assessed as reduction in cell growth at 10 uM; assay type: functional, cell-based
[4] = system: OVCAR-3; experiment: Cytotoxicity against human OVCAR-3 cells assessed as reduction in cell growth at 10 uM; assay type: functional, cell-based
[5] = system: OVCAR-4; experiment: Cytotoxicity against human OVCAR-4 cells assessed as reduction in cell growth at 10 uM; assay type: functional, cell-based
[6] = system: NCI/ADR-RES; experiment: Cytotoxicity against human NCI-ADR-RES cells assessed as reduction in cell growth at 10 uM; assay type: functional, cell-based
[7] = system: MDA-MB-231; experiment: Cytotoxicity against human MDA-MB-231 cells assessed as reduction in cell viability incubated for 3 days by methylene blue staining based spectrophotometric analysis; assay type: functional; conditions: MDA-MB-231, 72 h, time 3 day
[8] = system: CAKI-1; experiment: Cytotoxicity against human CAKI-1 cells assessed as reduction in cell growth at 10 uM; assay type: functional, cell-based
[9] = system: HT-1080; experiment: Cytotoxicity against human HT-1080 cells assessed as reduction in cell viability incubated for 3 days by methylene blue staining based spectrophotometric analysis; assay type: functional; conditions: HT-1080, 72 h, time 3 day
[10] = system: OVCAR-5; experiment: Cytotoxicity against human OVCAR-5 cells assessed as reduction in cell growth at 10 uM; assay type: functional, cell-based
[11] = biological target: Phospholipid hydroperoxide glutathione peroxidase GPX4 (Homo sapiens) (UniProt P36969); experiment: Inhibition of recombinant GPX4 (unknown origin) at 100 uM incubated for 60 mins followed by NADPH addition
Sequence of Phospholipid hydroperoxide glutathione peroxidase GPX4 (Homo sapiens) (P36969 whole entry): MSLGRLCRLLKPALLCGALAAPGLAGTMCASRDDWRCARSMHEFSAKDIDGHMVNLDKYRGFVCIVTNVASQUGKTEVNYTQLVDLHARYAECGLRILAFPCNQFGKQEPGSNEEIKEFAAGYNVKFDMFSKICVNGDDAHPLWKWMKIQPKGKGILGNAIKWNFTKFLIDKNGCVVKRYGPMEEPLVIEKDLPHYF

[12] = system: 786-0; experiment: Cytotoxicity against human 786-0 cells assessed as reduction in cell growth at 10 uM; assay type: functional, cell-based
[13] = biological target: Glucose-6-phosphate 1-dehydrogenase (Homo sapiens) (UniProt P11413); experiment: Inhibition of G6PD in human HCT-116 cells using G6P as substrate at 100 uM incubated for 20 mins followed by G6P and […]; assay type: cell-based
Sequence of Glucose-6-phosphate 1-dehydrogenase (Homo sapiens) (P11413 whole entry): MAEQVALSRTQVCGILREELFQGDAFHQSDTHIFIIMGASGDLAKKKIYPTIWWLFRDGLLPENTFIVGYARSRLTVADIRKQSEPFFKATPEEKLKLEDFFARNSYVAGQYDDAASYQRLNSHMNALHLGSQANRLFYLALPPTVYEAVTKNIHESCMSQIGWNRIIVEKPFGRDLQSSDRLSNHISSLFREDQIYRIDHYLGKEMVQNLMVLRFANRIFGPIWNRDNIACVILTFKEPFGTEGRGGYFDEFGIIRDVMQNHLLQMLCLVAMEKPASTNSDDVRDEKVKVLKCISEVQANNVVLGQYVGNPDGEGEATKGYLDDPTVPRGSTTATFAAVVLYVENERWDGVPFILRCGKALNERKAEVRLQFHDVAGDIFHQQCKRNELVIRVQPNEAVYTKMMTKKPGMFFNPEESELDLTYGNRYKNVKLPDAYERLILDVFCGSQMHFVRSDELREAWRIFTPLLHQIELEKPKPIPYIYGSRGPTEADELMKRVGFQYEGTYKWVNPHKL

[14] = system: K562; experiment: Cytotoxicity against human K562 cells assessed as reduction in cell growth at 10 uM; assay type: functional, cell-based
[15] = system: NCI-H522; experiment: Cytotoxicity against human NCI-H522 cells overexpressing GFP-tagged RV assessed as reduction in cell viability incubated for 3 days by methylene blue staining based spectrophotometric analysis; assay type: functional; conditions: NCI-H522, 72 h, time 3 day
[16] = system: 786-0; experiment: Cytotoxicity against human 786-0 cells assessed as reduction in cell growth by measuring cell viability at 10 uM relative to control; assay type: functional
[17] = biological target: Glucose-6-phosphate 1-dehydrogenase (Homo sapiens) (UniProt P11413); experiment: Inhibition of G6PD in human HCT-116 cells using G6P as substrate assessed as reduction in enzyme activity by measuring absorbance at 100 uM incubated for 20 mins followed by G6P and […]; assay type: cell-based
[18] = system: SN12C; experiment: Cytotoxicity against human SN12C cells assessed as reduction in cell growth at 10 uM; assay type: functional, cell-based
[19] = system: NCI-H522; experiment: Cytotoxicity against human NCI-H522 cells assessed as reduction in cell viability at 1 uM incubated for 3 days by methylene blue staining based spectrophotometric analysis; assay type: functional; conditions: time 3.0 day
[20] = system: MEF; experiment: Cytotoxicity against mouse MEF cells assessed as reduction in cell viability at 1 uM incubated for 3 days by methylene blue staining based spectrophotometric analysis; assay type: toxicity; conditions: 72 h, time 3 day
[21] = system: UO-31; experiment: Cytotoxicity against human UO-31 cells assessed as reduction in cell growth at 10 uM; assay type: functional, cell-based
[22] = system: U2OS; experiment: Cytotoxicity against human U2OS cells assessed as reduction in cell viability incubated for 3 days by methylene blue staining based spectrophotometric analysis; assay type: functional; conditions: 72 h, time 3 day
[23] = biological target: T1, Peroxiredoxin-4 (Homo sapiens) (UniProt Q13162); experiment: Inhibition of PRDX4 (unknown origin)
T1 sequence (whole entry): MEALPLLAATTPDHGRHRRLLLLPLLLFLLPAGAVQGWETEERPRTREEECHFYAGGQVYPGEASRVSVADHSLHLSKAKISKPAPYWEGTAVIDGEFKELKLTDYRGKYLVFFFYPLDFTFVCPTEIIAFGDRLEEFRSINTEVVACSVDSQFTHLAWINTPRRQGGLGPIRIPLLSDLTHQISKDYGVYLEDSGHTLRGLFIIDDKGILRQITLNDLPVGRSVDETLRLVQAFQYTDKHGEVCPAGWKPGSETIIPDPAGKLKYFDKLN

[24] = system: NCI-H522; experiment: Cytotoxicity against human NCI-H522 cells overexpressing GFP-tagged SLC7A11 assessed as reduction in cell viability incubated for 3 days by methylene blue staining based spectrophotometric analysis; assay type: functional; conditions: NCI-H522, 72 h, time 3 day
[25] = system: WI-38; experiment: Cytotoxicity against human WI-38 cells assessed as reduction in cell viability at 1 uM incubated for 3 days by methylene blue staining based spectrophotometric analysis; assay type: toxicity; conditions: wi-38, 72 h, time 3 day
[26] = system: ACHN; experiment: Cytotoxicity against human ACHN cells assessed as reduction in cell growth at 10 uM; assay type: functional, cell-based
[27] = system: TK-10; experiment: Cytotoxicity against human TK-10 cells assessed as reduction in cell growth at 10 uM; assay type: functional, cell-based
[28] = system: MOLT-4; experiment: Cytotoxicity against human MOLT-4 cells assessed as reduction in cell growth at 10 uM; assay type: functional, cell-based
[29] = system: CCRF-CEM; experiment: Cytotoxicity against human CCRF-CEM cells assessed as reduction in cell growth at 10 uM; assay type: functional, cell-based
[30] = system: NCI-H522; experiment: Induction of ferroptosis in human NCI-H522 cells assessed as cell viability incubated for 3 days in presence of liproxstatin-1 by methylene blue staining based spectrophotometric analysis relative to control; assay type: functional; conditions: time 3 day
[31] = system: HL-60; experiment: Cytotoxicity against human HL-60 cells assessed as reduction in cell growth at 10 uM; assay type: functional, cell-based
[32] = system: SK-OV-3; experiment: Cytotoxicity against human SK-OV-3 cells assessed as reduction in cell growth at 10 uM; assay type: functional, cell-based
[33] = system: NCI-H522; experiment: Induction of cell death in human NCI-H522 cells at 10 uM incubated for 3 to 4 hrs by live cell imaging analysis relative to control; assay type: functional; conditions: time 3-4 hrs
[34] = system: RPMI-8226; experiment: Cytotoxicity against human RPMI-8226 cells assessed as reduction in cell growth at 10 uM; assay type: functional, cell-based
[35] = system: RXF 393; experiment: Cytotoxicity against human RXF 393 cells assessed as reduction in cell growth at 10 uM; assay type: functional, cell-based
[36] = system: IGROV-1; experiment: Cytotoxicity against human IGROV-1 cells assessed as reduction in cell growth by measuring cell viability at 10 uM relative to control; assay type: functional
[37] = system: NCI-H522; experiment: Induction of ferroptosis in human NCI-H522 cells assessed as increase in intracellular lipid peroxidation accumulation at 0.51 uM incubated for 6 hrs by C11 BODIPY 581/591 staining based flow cytometry; assay type: functional, cell-based
[38] = system: HT-1080; experiment: Cytotoxicity against human HT-1080 cells assessed as reduction in cell viability at 1 uM incubated for 3 days by methylene blue staining based spectrophotometric analysis; assay type: functional; conditions: time 3.0 day
[39] = system: OVCAR-8; experiment: Cytotoxicity against human OVCAR-8 cells assessed as reduction in cell growth at 10 uM; assay type: functional, cell-based
[40] = system: UO-31; experiment: Cytotoxicity against human UO-31 cells assessed as reduction in cell growth by measuring cell viability at 10 uM relative to control; assay type: functional
[41] = system: NCI-H522; experiment: Induction of ferroptosis in human NCI-H522 cells assessed as cell death at 0.51 uM incubated for 3 days by methylene blue staining based spectrophotometric analysis relative to control; assay type: functional; conditions: time 3 day
[42] = Drug localization in human HeLa cell nucleus incubated for 1 hr by TAMRA/Hoechst dye based fluorescent live cell imaging analysis; assay type: ADME, subcellular
[43] = Drug localization in human HeLa cell vacuole incubated for 1 hr by TAMRA/Hoechst dye based fluorescent live cell imaging analysis; assay type: ADME, subcellular
[44] = system: NCI-H522; experiment: Induction of ferroptosis in human NCI-H522 cells assessed as cell viability at 6.93 uM incubated for 3 days in presence of liproxstatin-1 by methylene blue staining based spectrophotometric analysis relative to control; assay type: functional; conditions: NCI-H522, 72 h, time 3 day, read-out: Activity
[45] = system: NCI-H522; experiment: Induction of ferroptosis in human NCI-H522 cells assessed as reduction in cell viability at 6.93 uM incubated for 3 days in presence of liproxstatin-1 by methylene blue staining based spectrophotometric analysis; assay type: functional; conditions: time 3.0 day
[46] = system: NCI-H522; experiment: Induction of ferroptosis in human NCI-H522 cells assessed as reduction in cell viability at 7.8 uM incubated for 3 days in presence of liproxstatin-1 by methylene blue staining based spectrophotometric analysis; assay type: functional; conditions: time 3.0 day
[47] = system: NCI-H522; experiment: Induction of ferroptosis in human NCI-H522 cells assessed as cell viability at 7.8 uM incubated for 3 days in presence of liproxstatin-1 by methylene blue staining based spectrophotometric analysis relative to control; assay type: functional; conditions: NCI-H522, 72 h, time 3 day, read-out: Activity

With `C#Cc1nc(C2=C(C)C(OC(C)=O)/C(=N/OC(C)=O)C2)cs1` (stereo not drawn) the Activity [1] was “Active”, the CC50 [2] was 170 nM and the Activity [3] was “inactive”. The Activity [4] was “inactive”, the Activity [5] was “inactive” and the Activity [6] was “inactive”. For the same compound, the CC50 [7] was 230 nM, the Activity [8] was “inactive” and the CC50 [9] was 140 nM. For the same compound, the Activity [10] was “inactive”, the inhibition [11] was “Active” and the Activity [12] was “inactive”. For the same compound, the inhibition [13] was “Active”, the Activity [14] was “inactive” and the CC50 [15] was 260 nM. For the same compound, the Activity [16] was -95%, the Activity [17] was 0.18 and the Activity [18] was “inactive”. The Activity [19] was “Active”, the Activity [20] was “Toxic” and the Activity [21] was “inactive”. The CC50 [22] was 7260 nM, the inhibition [23] was “inactive” and the CC50 [24] was 1590 nM. For the same compound, the Activity [25] was “Toxic”, the Activity [26] was “inactive” and the Activity [27] was “inactive”. The Activity [28] was “inactive”, the Activity [29] was “inactive” and the Activity [30] was 60%. For the same compound, the Activity [31] was “inactive”, the Activity [32] was “inactive” and the Activity [33] was 50%. The Activity [34] was “inactive”, the Activity [35] was “inactive” and the Activity [36] was -95%. For the same compound, the Activity [37] was “Active”, the Activity [38] was “Active” and the Activity [39] was “inactive”. For the same compound, the Activity [40] was -95% and the Activity [41] was roughly 60%.

`C#CCO/N=C1\CC(c2csc(C#C)n2)=C(C)C1O` (stereo not drawn) showed a CC50 [2] of 2310 nM, a CC50 [7] of 2700 nM and a CC50 [9] of 1170 nM. For the same compound, the Drug uptake [42] was “Active”, the Drug uptake [43] was “Active” and the viability at 6.93 µM [44] was 75%. The Activity [45] was “inactive”.

In the case of `C#CCCC(=O)Nc1ccc(C(=O)c2ccc(NC(=O)CO/N=C3\CC(c4csc(C#C)n4)=C(C)C3O)cc2)cc1` (stereo not drawn), the CC50 [2] was 2600 nM, the Activity [46] was “inactive” and the CC50 [7] was 1330 nM. For the same compound, the CC50 [9] was 1200 nM and the viability at 7.8 µM [47] was 45%.
